Source: patent US20240277684A1, “BLOCKADE OF CHEMOKINE (C-C MOTIF) RECEPTOR 2 DURING FLUID RESUSCITATION” (University of South Florida, priority 2022, published 2024)

How the values were obtained:
hemorrhagic shock [1] = experiment: Example 2 Series 2: 60 min hemorrhagic shock, single dose, fluid resuscitation until t=300 min; assay type: in vivo, rat
Experimental: (§1) The hemorrhagic shock models were performed as described previously, with slight modifications (DeSantis A J, et al., The Chemokine (C-C Motif) Receptor 2 Antagonist INCB3284 Reduces Fluid Requirements and Protects From Hemodynamic Decompensation During Resuscitation From Hemorrhagic Shock. Crit Care Explor 2022;4(5):e0701; Bach H H, et al., Chemokine (C-X-C motif) receptor 4 and atypical chemokine receptor 3 regulate vascular alpha(1)-adrenergic receptor function. Mol Med 2014; 20:435-47; Nassoiy S P, et al., Effects of the Kv7 voltage activated potassium channel inhibitor linopirdine in rat models of hemorrhagic shock. Clin Exp Pharmacol Physiol 2018. doi: 10.1111/1440-1681.12958. PubMed PMID: 29702725; Bach H H, et al., Proteasome inhibition prolongs survival during lethal hemorrhagic shock in rats. J Trauma Acute Care Surg 2013; 74(2):499-507). In brief, anesthesia induction was performed with the animal and isoflurane-soaked gauze placed in a bell jar. After anesthesia induction, the animals were transferred to the operative field and anesthesia was maintained with 2.7% isoflurane administered via nose-cone inhalation with the SomnoSuite small animal anesthesia system (Kent Scientific Corporation, Torrington, CT, USA). […] Using a direct cut-down technique, the left femoral artery was isolated and cannulated with a 24-gauge peripheral intravenous catheter to allow for blood withdrawal, hemodynamic monitoring, drug administration, and fluid resuscitation. After catheter placement, isoflurane was decreased to 1.5%. Hemodynamics were continuously monitored with the Surgivet invasive blood pressure monitor (Med-Electronics, Beltsville, MD, USA). Blood pressures were recorded at 1-5 min intervals during the hemorrhage and resuscitation periods. Four subsequent series of experiments were performed. All experiments in each series were performed in alternating order. In all experiments animals were continuously monitored and remained under general anesthesia until euthanasia or death, as defined by asystole or loss of pulse pressure.
Series 2: Rats were hemorrhaged to a MAP of less than or equal to 30 mmHg for a period of 60 min, followed by fluid resuscitation until t=300 min as in Series 1. At the end of the hemorrhagic shock period (t=60 min), animals were injected with 1 mL of normal saline (NS) (n=6), 5 μmol/kg (n=6) INCB3284 in 1 mL NS or 1.1 μmol/kg SB 328437 (n=6) in 1 mL NS at t=60 min. At t=0 min, 60 min, 120 min, 180 min, 240 min and 300 min, blood samples (0.3 ml) were obtained and used for arterial blood gas analyses and measurements of routine laboratory parameters. At t=300 min, surviving animals were euthanized (5% isoflurane inhalation, bilateral pneumothorax).
Arterial blood gases and routine laboratory parameters. Arterial blood gases, electrolytes, creatinine, lactate, hematocrit and hemoglobin were analyzed using the Element point of care veterinary blood gas, electrolyte and critical care analyzer (Cuattro Veterinary USA, Loveland, CO, USA).

hemorrhagic shock [2] = experiment: Example 2 Series 1: 30 min hemorrhagic shock, fluid resuscitation until t=90 min; assay type: in vivo, rat
Experimental: as §1
Series 1: To assess the effects of SB328437 treatment after hemorrhagic shock and fluid resuscitation, and to be able to compare findings with the previous study on the effects of CCR2 and CCR5 inhibition, rats were hemorrhaged to a mean arterial blood pressure (MAP) of less than or equal to 30 mmHg for a period of 30 minutes. At the end of the hemorrhagic shock period (t=30 min), animals were injected with either vehicle (1 mL lactated Ringer's solution (LR), n=5), 0.25 μmol/kg SB328437 (n=3) or 1.1 μmol/kg SB328437 (n=3) in 1 mL LR, followed by fluid resuscitation with 1 mL bolus injections of LR to maintain a systolic blood pressure of 90 mm Hg or an MAP of 60 mm Hg until t=90 min, as described. To avoid fluid overload, bolus injections of LR were limited to 1 mL/min. At t=90 min, surviving animals were euthanized (5% isoflurane inhalation, bilateral pneumothorax).

severe hemorrhagic shock = experiment: Example 2 Series 4: lethal hemorrhage without fluid resuscitation; assay type: in vivo, rat; conditions: 5 μmol/kg INCB3284 or 1 μmol/kg SB328437 after 40% TBV hemorrhage
Experimental: as §1
Series 4: The purpose of these experiments was to determine whether treatment with the chemokine receptor antagonists increases shock tolerance, blood pressure and survival time without additional fluid resuscitation. As such, death is an intentional endpoint. Earlier endpoints are unable to answer these questions and alternatives are not available. Rats were hemorrhaged 40% total blood volume (TBV) within 10 min. At t=15 min, animals were injected with vehicle (1 mL NS, n=3), 5 μmol/kg INCB3284 in 1 mL NS (n=5) or […] SB 328437 in 1 mL NS (n=5). Animals were then hemorrhaged 2% TBV every 5 minutes until death.

solubility = assay type: physicochemical
CCR3 [3] = biological target: T1, CCR3 (Homo sapiens, UniProt P51677); conditions: read-out: IC50, CCR3 antagonist; cited from earlier work
T1 sequence (P51677 1-355): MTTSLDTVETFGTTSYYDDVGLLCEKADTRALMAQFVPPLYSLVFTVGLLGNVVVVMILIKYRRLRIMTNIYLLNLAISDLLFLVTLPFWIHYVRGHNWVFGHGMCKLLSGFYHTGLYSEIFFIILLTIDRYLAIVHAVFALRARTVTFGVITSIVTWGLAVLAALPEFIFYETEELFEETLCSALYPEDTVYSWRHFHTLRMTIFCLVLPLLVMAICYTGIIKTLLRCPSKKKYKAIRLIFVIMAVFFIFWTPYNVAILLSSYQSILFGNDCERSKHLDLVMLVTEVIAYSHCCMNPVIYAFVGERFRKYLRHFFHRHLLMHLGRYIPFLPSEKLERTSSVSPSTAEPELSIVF

hemorrhagic shock [4] = experiment: Example 1 first series: 30 min hemorrhagic shock, fluid resuscitation until t=90 min; assay type: in vivo, rat; conditions: 5.5 μmol/kg Maraviroc at t=30 min, vs vehicle or 1.1 INCB3284
Experimental: In vivo animal experiments. All procedures were performed in accordance with the National Institutes of Health Guidelines for Use of Laboratory Animals and were approved by the University of South Florida Institutional Animal Care and Use Committeee (IS00008139). Male Sprague-Dawley rats (300-400 g, Envigo, Indianapolis, IN, USA). were anesthetized with 1.7% isoflurane via nose-cone inhalation with the SomnoSuite anesthesia system (Kent Scientific, Torrington, CT, USA). […] The left femoral artery was isolated and cannulated with a 24-gauge peripheral intravenous catheter to allow for blood withdrawal, hemodynamic monitoring, drug administration, and fluid resuscitation. Hemodynamics were continuously monitored with the SurgivetV6400 blood pressure monitor (Med-Electronics, Beltsville, MD, USA), and blood pressures and heart rate were recorded at 1-10 min intervals. All animals were observed over a 10 min period to ensure hemodynamic stability before start of the experiments. All experiments were performed randomized in alternating order. […] Physiol Res 2019; 68(4):675-679; Nassoiy S P, et al., Effects of the Kv7 voltage-activated potassium channel inhibitor linopirdine in rat models of haemorrhagic shock. Clin Exp Pharmacol Physiol 2018; Nassoiy S P, et al., Kv7 voltage-activated potassium channel inhibitors reduce fluid resuscitation requirements after hemorrhagic shock in rats. J Biomed Sci 2017; 24(1):8; Bach H Ht, et al., Proteasome inhibition prolongs survival during lethal hemorrhagic shock in rats. J Trauma Acute Care Surg 2013; 74(2):499-507; Bach H Ht, et al., Chemokine (C-X-C motif) receptor 4 and atypical chemokine receptor 3 regulate vascular alpha(1)-adrenergic receptor function. Mol Med 2014; 20:435-447), with slight modifications. In brief, rats were hemorrhaged to a mean arterial blood pressure (MAP) of less than or equal to 30 mmHg for a period of 30 minutes. At the end of the HS period (t=30 min), animals were injected with either vehicle (1 mL LR) or drug in 1 mL LR, followed by fluid resuscitation with 1 mL bolus injections of LR to maintain a systolic blood pressure (SBP) of 90 mmHg or a MAP of 60 mmHg. To avoid fluid overload, bolus injections of LR were limited to 1 mL/min. […] Animals were then resuscitated until t=90 min. At t=0, 15, 30, 60 and 90 min, blood samples were obtained, and plasma prepared. Samples were stored at -70° C. until further processing. At t=90 min, animals were euthanized (isoflurane inhalation, bilateral pneumothorax).

CCR2 = CCR2 (Homo sapiens, UniProt P41597); conditions: read-out: Kd, binding affinity of CCL2 for CCR2; cited from earlier work
CCR2, sequence (P41597 whole entry, species assumed): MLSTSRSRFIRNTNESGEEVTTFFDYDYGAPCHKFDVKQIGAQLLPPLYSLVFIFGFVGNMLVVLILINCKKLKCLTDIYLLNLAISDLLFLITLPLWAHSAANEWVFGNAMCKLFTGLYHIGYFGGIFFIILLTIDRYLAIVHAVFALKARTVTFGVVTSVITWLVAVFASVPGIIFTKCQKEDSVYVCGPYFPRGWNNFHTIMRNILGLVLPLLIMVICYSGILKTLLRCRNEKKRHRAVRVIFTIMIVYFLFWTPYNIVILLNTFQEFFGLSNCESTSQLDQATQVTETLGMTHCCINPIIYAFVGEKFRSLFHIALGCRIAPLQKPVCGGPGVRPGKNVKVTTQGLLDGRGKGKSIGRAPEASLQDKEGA

CCR3 [5] = biological target: T1, CCR3; conditions: cited from earlier work
CCR5 = conditions: cited from earlier work

In the case of `COC(=O)[C@H](Cc1ccc([N+](=O)[O-])cc1)NC(=O)c1cccc2ccccc12` [SB328437], the median survival time (hemorrhagic shock [1]; 1.1 μmol/kg SB328437 or 5 μmol/kg INCB3284 at t=60 min) is reported as 290 min, the “animals that survived the resuscitation period” value (hemorrhagic shock [1]; 1.1 μmol/kg SB328437 or 5 μmol/kg INCB3284 at t=60 min, until t=300 min, n=6) is reported as 3 of 6 and the fluid requirements (hemorrhagic shock [1]; 1.1 μmol/kg at t=60 min) is reported as “could not be significantly reduced”. For the same molecule, the “MAP during fluid resuscitation” value (hemorrhagic shock [1]; 1.1 μmol/kg at t=60 min, between t=140-200 min) was “lower”, the “Fluid requirements to achieve the MAP target vs vehicle” value (hemorrhagic shock [2]; 0.25 μmol/kg at t=30 min) was “comparable” and the “MAP vs vehicle treated animals” value (hemorrhagic shock [2]; 0.25 μmol/kg at t=30 min) was “indistinguishable”. For the same molecule, the “fluid requirements (mean±SE)” value (hemorrhagic shock [2]; 0.25 μmol/kg at t=30 min, until t=90 min) was 53 ± 7 mL/kg, the “MAP at the end of the resuscitation period (t=80-90 min)” value (hemorrhagic shock [2]; 1.1 μmol/kg at t=30 min) was “higher” and the “reduction of fluid requirements” value (hemorrhagic shock [2]; 1.1 μmol/kg at t=30 min, until t=90 min, vs vehicle) was 63±4%. The “fluid requirements (mean±SE)” value (hemorrhagic shock [2]; 1.1 μmol/kg at t=30 min, until t=90 min, p<0.05 vs. vehicle) was 19.5 ± 2 mL/kg, the “MAP during subsequent 2% TBV hemorrhages in 5 min intervals” value (severe hemorrhagic shock; no fluid resuscitation) was “indistinguishable among groups” and the median survival time (severe hemorrhagic shock; not significantly different between groups) was 64 min. For the same molecule, the solubility (solubility) was “limited” and the IC50 (CCR3 [3]) was 4.5 nM.
In the case of Maraviroc, the “effect on fluid requirements” value (hemorrhagic shock [4]) is reported as “did not affect fluid requirements”.
For “CCL2: principal endogenous agonist of chemokine (C-C motif) receptor 2 (CCR2)”, the Kd (CCR2) is listed as ~0.5 nM, the “binding affinity of CCL2 for CCR3 lower than for CCR2” value (CCR3 [5]) is listed as “more than 100 fold” and the “binding affinity of CCL2 for CCR5 lower than for CCR2” value (CCR5) is listed as “more than 100 fold”.
